# From patent US7022856B2, “Carboline derivatives” (LIlly Icos LLC., priority 2001, dated 2006)
# Tests used:
# [1] = target: T1, human recombinant PDE5 (Homo sapiens, UniProt O76074); test: cGMP-PDE inhibition, one-step assay with human recombinant PDE5; assay type: biochemical; conditions: 0.15 μM 8-[H3]-cGMP, 30 min
# T1 construct: host or cells: Saccharomyces cerevisiae strain BJ2-54 (ATCC 74465)
# Method: The compounds of structural formula (I) were tested for an ability to inhibit PDE5. The ability of a compound to inhibit PDE5 activity is related to the IC50 value for the compound, i.e., the concentration of inhibitor required for 50% inhibition of enzyme activity. The IC50 value for compounds pounds of structural formula (I) were determined using recombinant human PDE5.
# Recombinant production of human PDE1B, PDE2, PDE4A, PDE4B, PDE4C, PDE4D, PDE5, and PDE7 was carried out similarly to that described in Example 7 of U.S. Pat. No. 5,702,936, incorporated herein by reference, except that the yeast transformation vector employed, which is derived from the basic ADH2 plasmid described in Price et al., Methods in Enzymology, 185, pp. 308–318 (1990), incorporated yeast ADH2 promoter and terminator sequences and the Saccharomyces cerevisiae host was the protease-deficient strain BJ2-54 deposited on Aug. 31, 1998 with the American Type Culture Collection, Manassas, Va., under accession number ATCC 74465. Transformed host cells were grown in 2×SC-leu medium, pH 6.2, with trace metals, and vitamins. After 24 hours, YEP medium-containing glycerol was added to a final concentration of 2×YET/3% glycerol. Approxiately 24 hr later, cells were harvested, washed, and stored at −70° C. […]
# Cell pellets (29 g) were thawed on ice with an equal volume of Lysis Buffer (25 mM Tris HCl, pH 8, 5 mM MgCl2, 0.25 mM DTT, 1 mM benzamidine, and 10 μM ZnSO4). Cells were lysed in a Microfluidizer® (Microfluidics Corp.) using nitrogen at 20,000 psi. The lysate was centrifuged and filtered through 0.45 μm disposable filters. The filtrate was applied to a 150 mL column of Q SEPHAROSE® Fast-Flow (Pharmacia). The column was washed with 1.5 volumes of Buffer A (20 mM Bis-Tris Propane, pH 6.8, 1 mM MgCl2, 0.25 mM DTT, 10 μM ZnSO4) and eluted with a step gradient of 125 mM NaCl in Buffer A followed by a linear gradient of 125–1000 mM NaCl in Buffer A. Active fractions from the linear gradient were applied to a 180 mL hydroxyapatite column in Buffer B (20 mM Bis-Tris Propane (pH 6.8), 1 mM MgCl2, 0.25 mM DTT, 10 μM ZnSO4, and 250 mM KCl). After loading, the column was washed with 2 volumes of Buffer B and eluted with a linear gradient of 0–125 mM potassium phosphate in Buffer B. Active fractions were pooled, precipitated with 60% ammonium sulfate, and resuspended in Buffer C (20 mM Bis-Tris Propane, pH 6.8, 125 mM NaCl, 0.5 mM DTT, and 10 μM ZnSO4). The pool was applied to a 140 mL column of SEPHACRYL® S-300 HR and eluted with Buffer C. Active fractions were diluted to 50% glycerol and stored at −20° C.
# (§1) cGMP-PDE activity of compounds of the present invention was measured using a one-step assay adapted from Wells et al., Biochim. Biophys. Acta, 384, 430 (1975). The reaction medium contained 50 mM Tris-HCl, pH 7.5, 5 mM magnesium acetate. 250 μg/ml 5′-Nucleotidase, 1 mM EGTA, and 0.15 μM 8-[H^3]-cGMP. Unless otherwise indicated, the enzyme used was a human recombinant PDE5 (ICOS Corp., Bothell, Wash.).
# (§2) Compounds of the invention were dissolved in DMSO finally present at 2% in the assay.
# [2] = target: T2, PDE5 (bovine aorta) (Bos taurus, UniProt Q28156); test: cGMP-PDE inhibition, one-step assay, enzyme from bovine aorta; assay type: biochemical; conditions: versus bovine aorta (footnote 1)
# T2 construct: from tissue; host or cells: bovine aorta
# Method: as §1, §2
Structure (SMILES),IC50 [1] [nM],melting point [°C],IC50 [2] [nM]
"O=C(c1ccc2ccccc2c1)N1CCc2c([nH]c3ccccc23)C1c1ccc2c(c1)OCO2 (stereo not drawn) [Example 1, 1-(2H-Benzo[d]1,3-dioxolan-5-yl)(1,2,3,4-tetrahydro-β-carbolin-2-yl)-2-naphthyl ketone]",566,248 to 249,–
"O=C(c1ccc2ccccc2c1)N1CCc2c([nH]c3ccccc23)[C@H]1c1ccc2c(c1)OCO2 [Example 2, 1-(2H-benzo[d]1,3-dioxolan-5-yl)(1R)(1,2,3,4-tetrahydro-β-carbolin-2-yl)2-naphthyl ketone]",710,285,–
O=C(c1ccccc1)N1CCc2c([nH]c3ccccc23)C1c1ccc2c(c1)OCO2 (stereo not drawn) [Example 3],–,–,440
"CC(=O)Nc1ccc(C(=O)N2CCc3c([nH]c4ccccc34)C2c2ccc3c(c2)OCO3)cc1 (stereo not drawn) [Example 4, N-{4[1-(1-Benzo[1,3]dioxol-5-yl-1,3,4,9-tetrahydro-β-carboline-2-yl)-methanoyl]phenyl}acetamide]",–,–,50
"O=C(c1ccc2nc[nH]c2c1)N1CCc2c([nH]c3ccccc23)C1c1ccc2c(c1)OCO2 (stereo not drawn) [Example 12, 1-(1-Benzo[1,3]dioxol-5-yl-1,3,4,9-tetrahydro-β-carbolin-2-yl)-1-(3H-benzoimidazol-5-yl)methanone]",–,–,180
O=C(c1cc2ccccc2s1)N1CCc2c([nH]c3ccccc23)C1c1ccc(C(F)(F)F)cc1 (stereo not drawn) [Example 14],–,–,200
O=C(c1ccc(-c2ccccn2)s1)N1CCc2c([nH]c3ccccc23)C1c1ccccc1 (stereo not drawn) [Example 15],–,–,1
CC(=O)Nc1ccc(C2c3[nH]c4ccccc4c3CCN2C(=O)c2cc3ccccc3s2)cc1 (stereo not drawn) [Example 16],–,–,70
O=C(c1ccc(-c2ccccn2)s1)N1CCc2c([nH]c3ccccc23)C1c1ccc2c(c1)OCO2 (stereo not drawn) [Example 17],–,–,250
Cc1c(S(=O)(=O)N2CCc3c([nH]c4ccccc34)[C@H]2c2ccc3c(c2)OCO3)sc2ccc(Cl)cc12 [Example 45],220,139 to 143,–
Clc1nc(N2CCc3c([nH]c4ccccc34)C2c2ccc3c(c2)OCO3)c2nc[nH]c2n1 (stereo not drawn) [Example 53],70,–,–
CN1CCN(c2nccc(N3CCc4c([nH]c5ccccc45)C3c3ccc4c(c3)OCO4)n2)CC1 (stereo not drawn) [Example 54],560,–,–
c1ccc(-c2nccc(N3CCc4c([nH]c5ccccc45)C3c3ccc4c(c3)OCO4)n2)cc1 (stereo not drawn) [Example 55],20,–,–
c1csc(-c2nccc(N3CCc4c([nH]c5ccccc45)C3c3ccc4c(c3)OCO4)n2)c1 (stereo not drawn) [Example 56],40,–,–
c1ccc2c3c([nH]c2c1)C(c1ccc2c(c1)CCO2)N(c1ccnc(-n2ccnc2)n1)CC3 (stereo not drawn) [Example 57],60,–,–
c1ccc(-c2ccnc(N3CCc4c([nH]c5ccccc45)C3c3ccc4c(c3)CCO4)n2)cc1 (stereo not drawn) [Example 58],30,–,–
c1cncc(-c2ccnc(N3CCc4c([nH]c5ccccc45)C3c3ccc4c(c3)CCO4)n2)c1 (stereo not drawn) [Example 59],40,–,–
c1ccc2c3c([nH]c2c1)C(c1ccc2c(c1)CCO2)N(c1nccc(-n2ccnc2)n1)CC3 (stereo not drawn) [Example 60],70,–,–
c1cncc(-c2nccc(N3CCc4c([nH]c5ccccc45)C3c3ccc4c(c3)CCO4)n2)c1 (stereo not drawn) [Example 61],40,–,–
c1csc(-c2nccc(N3CCc4c([nH]c5ccccc45)C3c3ccc4c(c3)CCO4)n2)c1 (stereo not drawn) [Example 62],50,–,–
Cc1nccn1-c1nccc(N2CCc3c([nH]c4ccccc34)C2c2ccc3c(c2)CCO3)n1 (stereo not drawn) [Example 63],40,–,–
c1ccc2c3c([nH]c2c1)C(c1ccc2c(c1)CCO2)N(c1ccnc(N2CCCCC2)n1)CC3 (stereo not drawn) [Example 64],760,–,–
c1ccc2c3c([nH]c2c1)C(c1ccc2c(c1)CCO2)N(c1cc(-n2ccnc2)ncn1)CC3 (stereo not drawn) [Example 65],20,–,–

Structure (SMILES),IC50 [1] [nM],melting point [°C],IC50 [2] [nM]
c1coc(-c2ccnc(N3CCc4c([nH]c5ccccc45)C3c3ccc4c(c3)CCO4)n2)c1 (stereo not drawn) [Example 66],340,–,–
c1coc(-c2nccc(N3CCc4c([nH]c5ccccc45)C3c3ccc4c(c3)CCO4)n2)c1 (stereo not drawn) [Example 67],70,–,–
Cc1nccn1-c1cc(N2CCc3c([nH]c4ccccc34)C2c2ccc3c(c2)CCO3)ncn1 (stereo not drawn) [Example 68],20,–,–
c1cncc(-c2nccc(N3CCc4c([nH]c5ccccc45)C3c3ccc4c(c3)CCO4)n2)c1 (stereo not drawn) [Example 69],9,–,–
CN(C)CCOc1ccc(-c2ccnc(N3CCc4c([nH]c5ccccc45)C3c3ccc4c(c3)CCO4)n2)cc1 (stereo not drawn) [Example 70],20,–,–
Cc1ncn(-c2cc(N3CCc4c([nH]c5ccccc45)C3c3ccc4c(c3)CCO4)ncn2)c1C (stereo not drawn) [Example 71],20,–,–
Oc1ccc(-c2ccnc(N3CCc4c([nH]c5ccccc45)C3c3ccc4c(c3)CCO4)n2)cc1 (stereo not drawn) [Example 72],10,–,–
Cc1ncn(-c2nccc(N3CCc4c([nH]c5ccccc45)C3c3ccc4c(c3)CCO4)n2)c1C (stereo not drawn) [Example 73],30,–,–
Cc1cn(-c2ccnc(N3CCc4c([nH]c5ccccc45)C3c3ccc4c(c3)CCO4)n2)cn1 (stereo not drawn) [Example 74],40,–,–
c1ccc(-c2cc(N3CCc4c([nH]c5ccccc45)C3c3ccc4c(c3)CCO4)ncn2)cc1 (stereo not drawn) [Example 75],7,–,–
Cc1cn(-c2cc(N3CCc4c([nH]c5ccccc45)C3c3ccc4c(c3)CCO4)ncn2)cn1 (stereo not drawn) [Example 76],10,–,–
c1cncc(-c2cc(N3CCc4c([nH]c5ccccc45)C3c3ccc4c(c3)CCO4)ncn2)c1 (stereo not drawn) [Example 77],4,–,–
Cc1nccn1-c1ccnc(N2CCc3c([nH]c4ccccc34)C2c2ccc3c(c2)CCO3)n1 (stereo not drawn) [Example 78],60,–,–
COc1ccc(-c2cc(N3CCc4c([nH]c5ccccc45)C3c3ccc4c(c3)CCO4)ncn2)cc1 (stereo not drawn) [Example 79],4,–,–
Oc1ccc(-c2cc(N3CCc4c([nH]c5ccccc45)C3c3ccc4c(c3)CCO4)ncn2)cc1 (stereo not drawn) [Example 80],50,–,–
CC(=O)Oc1ccc(-c2cc(N3CCc4c([nH]c5ccccc45)C3c3ccc4c(c3)CCO4)ncn2)cc1 (stereo not drawn) [Example 81],3,–,–
CN(C)CCOc1ccc(-c2cc(N3CCc4c([nH]c5ccccc45)C3c3ccc4c(c3)CCO4)ncn2)cc1 (stereo not drawn) [Example 82],5,–,–
Cc1ccc(C2c3[nH]c4ccccc4c3CCN2C(=O)c2cc3ccccc3s2)cc1 (stereo not drawn) [Example 83],82,–,–
O=C(c1cc2ccccc2s1)N1CCc2c([nH]c3ccccc23)C1c1ccc2c(c1)OCO2 (stereo not drawn) [Example 84],309,–,–
O=C(c1cc2ccccc2s1)N1CCc2c([nH]c3ccccc23)C1c1cccc(Cl)c1 (stereo not drawn) [Example 85],835,–,–
O=C(c1cc2ccccc2s1)N1CCc2c([nH]c3ccccc23)C1c1ccccc1 (stereo not drawn) [Example 86],900,–,–
c1ccc2c3c([nH]c2c1)C(c1ccc2c(c1)OCO2)N(c1nccc(N2CCOCC2)n1)CC3 (stereo not drawn) [Example 87],1010,–,–
